Measurements taken from the Kinase Knowledgebase extract (Sharma et al. 2016).

Biological target: MAPK14 (human) (UniProt Q16539)
Assay: Inhibition of MAPK14 Kinase Activity

Chain of MAPK14 (human) (Q16539 whole entry, looked up): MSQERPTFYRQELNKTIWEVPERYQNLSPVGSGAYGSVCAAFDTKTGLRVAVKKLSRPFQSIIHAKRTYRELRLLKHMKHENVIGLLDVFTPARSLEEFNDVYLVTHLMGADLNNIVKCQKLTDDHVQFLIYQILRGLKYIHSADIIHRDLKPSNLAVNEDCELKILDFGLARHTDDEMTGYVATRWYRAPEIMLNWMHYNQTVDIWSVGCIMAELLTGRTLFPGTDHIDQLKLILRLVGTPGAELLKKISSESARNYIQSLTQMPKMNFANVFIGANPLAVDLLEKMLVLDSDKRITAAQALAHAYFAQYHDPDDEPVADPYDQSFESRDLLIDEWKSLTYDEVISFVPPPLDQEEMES

| IC50 [µM] | SMILES |
| --- | --- |
| > 20 | CS(=O)(=O)Nc1ccc(-c2cnc3cccc(-c4ccncc4)c3c2)cc1 |
| > 20 | c1ccc(-c2cnc3ccc4ccncc4c3c2)cc1 |
| > 20 | Oc1ccc(-c2cnc3ccc4ccncc4c3c2)cc1 |
| > 20 | CS(=O)(=O)Nc1ccc(-c2cnc3cccc(Nc4ccc(Cl)cn4)c3c2)cc1 |
| > 20 | CC(C)(C)NS(=O)(=O)c1ccc(-c2cnc3cccc(Nc4ccccn4)c3c2)cc1 |
| > 20 | CS(=O)(=O)Nc1ccc(-c2cnc3cccc(-c4cccnc4)c3c2)cc1 |
| > 20 | CS(=O)(=O)Nc1ccc(-c2cnc3ccc4ccncc4c3c2)cc1 |
| > 20 | Nc1ccc(-c2cnc3ccc4ccncc4c3c2)cc1 |
| > 20 | CS(=O)(=O)Nc1ccc(-c2cnc3cccc(Nc4ncccn4)c3c2)cc1 |
| > 20 | CC(=O)Nc1ccc(-c2cnc3ccc4ccncc4c3c2)cc1 |
| > 20 | CS(=O)(=O)Nc1ccc(-c2cnc3cccc(Nc4ccccn4)c3c2)cc1 |
| > 20 | CC(C)(C)NS(=O)(=O)c1ccc(-c2cnc3cccc(Nc4ccc(Cl)cn4)c3c2)cc1 |
| > 20 | CS(=O)(=O)N(c1ccc(-c2cnc3ccc4ccncc4c3c2)cc1)S(C)(=O)=O |
